The subject of test [1] is p190- and p210-BCR-ABL1 expressing Ba/F3 cells. The test can be described thus: Cell survival, trypan blue exclusion. It counts as cell-based, murine. To be noted: Mus musculus, BaF3; read-out: half maximal effective concentration (EC50), survival. On the procedure: (B) IODVA1-dependent survival curves of empty vector (red circles) or p190-BCR-ABL1 (black circles) expressing Ba/F3 cells and of Nalm-1 cells. […] (C) p190-BCR-ABL1 (grey line) or Mieg3 (black line) expressing Ba/F3 cells were allowed to grow for 1 day, treated with IODVA1 (IO1, 1 μM) for 1 day, and washed (black arrow). Cells were counted for 7 days using trypan blue exclusion. (D) Ba/F3 cells stably expressing p190-BCR-ABL1 were subjected to colony formation assay in soft agar (0.25% Noble Agar in RPMI/FBS/IL-3) in the presence of DMSO or IODVA1 (1 or 10 μM). Colonies were allowed to form for 10 days then stained with iodonitrotetrazolium (1 mg/mL). […] (E) Leukemic burden (%) of treated mice before treatment (left upper panel) and at the indicated treatment time was analyzed by flow cytometry of bone marrow aspirates as population containing B220^+/CD43^+ pro-B cells. […]
(§1) IODVA1 specifically targets BCR-ABL B-ALL cells in vitro. […] We then assessed survival of p190-BCR-ABL-transformed CD34^+ cells in the presence of IODVA1 by trypan blue exclusion. […]
MDA-MB-231 cells were maintained in IMEM (Invitrogen) supplemented with 10% FBS, 1% penicillin/streptomycin, and 1% amphotericin B. B a/F3 cells were cultured in RPMI (GIBCO) supplemented with 10% FBS and IL-3 (10 ng/ml). […] Cell viability was assessed by trypan blue exclusion assay as previously described. […]

Test [2] concerns Vav3−/− leukemic cells expressing ΔCH Vav3. Description: Vav3 rescue, colony formation assay. It counts as cell-based, murine. To be noted: 1, 5, and 10 μM. The text has this:
FIG. 15: Expression of transgenic Vav3 re-sensitizes Vav3-deficient cells to IODVA1. (A) Vav3 domain structure, calponin-homology (CH), acidic region (Ac), Dbl-homology (DH), pleckstrin-homology (PH), zinc finger (ZF), Src-homology 2 and 3 (SH2/SH3). (B) Representative histogram data of the cell cycle analysis of wild-type (Vav3^+/+) and Vav3-deficient (Vav3^−/−) p190-BCR-ABL1 leukemic bone marrow cells expressing empty vector, full-length Vav3 or ΔCH mutant and treated with vehicle control (black) or IODVA1 at 5 (red) or 10 μM (dark grey) for 18 h. (C) Quantification of the average number of colonies made by bone marrow wild-type and Vav3^−/− p190-BCR-ABL1 leukemic bone marrow cells expressing empty vector, full-length Vav3 or ΔCH mutant and treated with vehicle control (black) or IODVA1 at 1 (light salmon), 5 (red) and 10 μM (dark grey). *** p≤0.001. […]
For Vav3 rescue experiments, low density bone marrow cells from wild-type ([…]) or Vav3^−/− mice were transduced with bicistronic retroviral vector encoding p190 BCR-ABL1-IRES-YFP (yellow fluorescent protein) and YFP^+ cells were sorted 48 h post-transduction. […] Cell cycle was analyzed at 18 h post BrdU incorporation. […]

Another test deals with Nalm-1 cells. The test can be described thus: Cell survival, trypan blue exclusion. It is filed as cell-based. On the procedure: (B) IODVA1-dependent survival curves of empty vector (red circles) or p190-BCR-ABL1 (black circles) expressing Ba/F3 cells and of Nalm-1 cells. […] (C) p190-BCR-ABL1 (grey line) or Mieg3 (black line) expressing Ba/F3 cells were allowed to grow for 1 day, treated with IODVA1 (IO1, 1 μM) for 1 day, and washed (black arrow). Cells were counted for 7 days using trypan blue exclusion. (D) Ba/F3 cells stably expressing p190-BCR-ABL1 were subjected to colony formation assay in soft agar (0.25% Noble Agar in RPMI/FBS/IL-3) in the presence of DMSO or IODVA1 (1 or 10 μM). Colonies were allowed to form for 10 days then stained with iodonitrotetrazolium (1 mg/mL). Data are representative of at least three independent experiments in triplicates. Note the smaller colony size in 1 μM IODVA1 treatment group. (E) Leukemic burden (%) of treated mice before treatment (left upper panel) and at the indicated treatment time was analyzed by flow cytometry of bone marrow aspirates as population containing B220^+/CD43^+ pro-B cells. (F) Count (%) of residual leukemic (EGFP^+-BCR-ABL1) cells in peripheral blood at weeks 3 and 5 for the secondary transplant mice from FIG. 1D. […]
as §1

Each structure is given as a SMILES string.

The results in this text go back to patent US11564913B2, “Compositions and methods for treating cancer” (Children's Hospital Medical Center, priority 2019, dated 2023).

As to `OC1(c2ccccn2)N=C(Nc2nc3ccccc3[nH]2)N=C1c1ccccn1` (stereo not drawn) [IODVA1, (Z)-2-((1H-benzo[d]imidazol-2-yl)imino)-4,5-di(pyridin-2-yl)-2,5-dihydro-1H-imidazol-5-ol], the values for the EC50 (in test [1]; in the test with Nalm-1 cells) were 380 nM and 680 nM, respectively. For the same molecule, in test [2], the “response in colony formation” value was “respond less”.
